Reference: paper PMC8955773 (Pharmaceuticals, 2022)
Where “and” joins values, the source holds several entries; their conditions need not be identical. Identical values can stand only once. Entries after “also recorded” stand apart in the source; their conditions may differ. Like-named read-outs stand apart in the source and are kept apart here.

Legend:
[1] = molecular target: T1, Butyrylcholinesterase (EC 3.1.1.8, BChE) from equine serum (eqBChE) (Equus caballus, UniProt P81908)
T1 construct: Butyrylcholinesterase (EC 3.1.1.8, BChE) was from equine serum (eqBChE) (Sigma-Aldrich); purchased Sigma-Aldrich; host or cells: equine serum
T1 sequence (P81908 whole entry): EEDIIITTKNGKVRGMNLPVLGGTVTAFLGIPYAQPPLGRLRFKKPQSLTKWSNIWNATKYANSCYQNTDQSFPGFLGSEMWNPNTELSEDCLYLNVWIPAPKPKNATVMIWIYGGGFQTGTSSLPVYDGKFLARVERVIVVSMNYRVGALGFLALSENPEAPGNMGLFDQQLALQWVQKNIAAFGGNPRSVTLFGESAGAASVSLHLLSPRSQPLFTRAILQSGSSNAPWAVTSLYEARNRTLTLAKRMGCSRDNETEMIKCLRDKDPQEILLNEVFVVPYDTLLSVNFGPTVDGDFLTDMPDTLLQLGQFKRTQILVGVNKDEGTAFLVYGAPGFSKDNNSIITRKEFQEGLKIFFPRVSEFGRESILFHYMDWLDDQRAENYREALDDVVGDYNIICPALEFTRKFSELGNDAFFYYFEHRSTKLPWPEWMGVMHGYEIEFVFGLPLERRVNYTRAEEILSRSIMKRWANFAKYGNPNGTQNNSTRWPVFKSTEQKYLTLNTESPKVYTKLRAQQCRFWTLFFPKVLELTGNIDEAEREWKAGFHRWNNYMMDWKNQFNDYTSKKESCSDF

[2] = molecular target: T1, Butyrylcholinesterase (EC 3.1.1.8, BChE) from equine serum (eqBChE); experiment: Butyrylcholinesterase inhibition, Ellman's method; format: biochemical; conditions: for IC50: eqBChE, BTCI substrate, pH 8.0, 37 °C, mean ± SD of three independent experiments
Method: The effect of the benzofuran derivatives was evaluated on the commercial enzyme from an animal source due to its low cost and remarkable similarity with the human enzyme.
The cholinesterase inhibition activity was executed using Ellman’s method, as previously described with slight modifications.
S-Butyrylthiocholine iodide (BTCI) and 5,5′-dithiobis-(2-nitrobenzoic) acid (DTNB) (Merck/Sigma-Aldrich) were used for the determination of the BChE activity. Butyrylcholinesterase (EC 3.1.1.8, BChE) was from equine serum (eqBChE) (Sigma-Aldrich). We used 96-well plates for analysis, to each well we added 70 μL phosphate-buffered (0.1 M, pH 8.0), 4 μL different concentration of the tested compounds or dimethyl sulfoxide (for control experiment), 6 μL enzyme (final concentration 0.15 U/mL in buffer), and 100 μL DTNB (1.5 mM final). The solution was preincubated for 5 min at 37 °C, then 20 μL BTCI 1.5 mM solution as the substrate was added to the reaction mixture. The absorbance change was measured at 405 nm, with a microplate reader FLUOstar OPTIMA (BMG Labtech, Offenburg, Germany). […] Each experiment was done in triplicate.
The statistical significance of differences was evaluated using one-way analysis of variation (one-way ANOVA), and Tukey’s multiple comparisons. Results were expressed as mean ± standard deviation (SD), and statistically significant differences were evaluated with p < 0.001 as a minimal significance level.

[3] = 2-phenylbenzofurans without spacer; cited from earlier work
[4] = read-out: IC50, inhibitory effect on BChE activity

Compound	IC50 [2, 4]	also measured
Oc1ccc(-c2cc3cc(Br)ccc3o2)cc1 [Compound 9A]	–	BChE inhibitory activity (in words) [1, 3]: no activity; also recorded: negligible inhibitory activity; also recorded: no BChE inhibition; IC50 ([1]; read-out: IC50, inhibitory effect on BChE activity; 2-phenylbenzofurans given for comparison; cited from earlier work): > 100 µM
Oc1ccc(Cc2cc3cc(Br)ccc3o2)cc1 [Compound 9B, 5-bromo-2-(4-hydroxybenzyl)benzofuran]	2.93 µM and 2.9 µM	inhibitory activity, fold higher than 14A ([2]; BChE, ratio of IC50 values): about 4 fold; inhibitory activity, times higher than galantamine ([2]; BChE, ratio of IC50 values): 10 times
Oc1ccc(-c2cc3cccc(Br)c3o2)cc1 [Compound 10A]	–	BChE inhibitory activity (in words) [1, 3]: negligible inhibitory activity
Oc1ccc(Cc2cc3cccc(Br)c3o2)cc1 [Compound 10B]	32.6 ± 2.04 µM	–
Oc1ccc(-c2cc3cc(Cl)ccc3o2)cc1 [Compound 11A]	–	IC50 ([1]; 2-phenylbenzofurans given for comparison; read-out: IC50, inhibitory effect on BChE activity; cited from earlier work): > 100 µM
Oc1ccc(Cc2cc3cc(Cl)ccc3o2)cc1 [Compound 11B]	55.7 ± 0.8 µM	–
Oc1ccc(Cc2cc3cccc(Cl)c3o2)cc1 [Compound 12B]	43 ± 5.65 µM	–
Oc1cccc(-c2cc3cc(Br)ccc3o2)c1 [Compound 13A]	–	IC50 ([2]; IC50, inhibitory effect on BChE activity): 10.6 ± 1.65 µM
Oc1cccc(Cc2cc3cc(Br)ccc3o2)c1 [Compound 13B]	39.9 ± 4.31 µM	–
Oc1cccc(Cc2cc3cccc(Br)c3o2)c1 [Compound 14B]	31.37 ± 0.15 µM	–
Oc1cccc(Cc2cc3cc(Cl)ccc3o2)c1 [Compound 15B, 5-chloro-2-(3-hydroxybenzyl)benzofuran]	27.8 ± 3.07 µM	–
Oc1cccc(Cc2cc3cccc(Cl)c3o2)c1 [Compound 16B]	61.7 ± 5.9 µM	–
